Reference: article PMC6137095 (Scientific Reports, 2018)

Experiments:
Format in all cases: binding
[1] = molecular target: T1, mSin3B PAH1 domain (Mus musculus, UniProt Q62141); experiment: WaterLOGSY NMR titration; STD and 1H-15N HSQC
T1 construct: gene Sin3b; PAH1 domain, a.a; 28–107 with a Met at the N-terminus (GST fusion for WaterLOGSY/STD)
T1 sequence (Q62141 28-107): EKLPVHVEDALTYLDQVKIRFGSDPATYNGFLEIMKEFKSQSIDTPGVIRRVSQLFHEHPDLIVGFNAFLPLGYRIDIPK

[2] = molecular target: T1, mSin3B PAH1 domain; experiment: 1H-15N HSQC, STD and WaterLOGSY NMR (weak/moderate)
[3] = molecular target: T1, mSin3B PAH1 domain; experiment: 1H-15N HSQC titration, STD and WaterLOGSY NMR
[4] = molecular target: T1, mSin3B PAH1 domain; experiment: STD, WaterLOGSY and HSQC NMR

CN(C)CC/C=C1/c2ccccc2Sc2ccc(Cl)cc21 [YN28, chlorprothixene]
Kd [1]: 35 ± 11 µM

CN(C)CCCN1c2ccccc2Sc2ccc(Cl)cc21 [YN29, chlorpromazine]
Kd [1]: 15 ± 4.2 µM

CNCCCC12CCC(c3ccccc31)c1ccccc12 [YN40]
1H-15N HSQC, STD and WaterLOGSY NMR (weak/moderate) [2]: only YN39, YN40, and YN42 showed clear signals in the STD spectra

C#CC(C)(O)CCc1cc(C)c(OC)cc1C (stereo not shown) [YN3]
1H-15N HSQC titration, STD and WaterLOGSY NMR [3]: four compounds YN29, YN31, YN3, and YN28, have a strong affinity for the mSin3B PAH1 domain

Fc1ccc([C@@H]2CCNC[C@H]2COc2ccc3c(c2)OCO3)cc1 [paroxetine]
STD, WaterLOGSY and HSQC NMR [4]: STD, WaterLOGSY, and HSQC experiments showed that paroxetine binds strongly to the PAH1 domain of mSin3B

COc1cc(CNC(=O)CCCC/C=C/C(C)C)ccc1O [YN39]
1H-15N HSQC, STD and WaterLOGSY NMR (weak/moderate) [2]: only YN39, YN40, and YN42 showed clear signals in the STD spectra

Clc1ccc2c(c1)C(N1CCNCC1)=Nc1ccccc1O2 [YN42]
1H-15N HSQC, STD and WaterLOGSY NMR (weak/moderate) [2]: only YN39, YN40, and YN42 showed clear signals in the STD spectra
